{"source": "patent US9512152B2", "about": "“Phospholipid compound containing unsaturated fatty acid derivative having cyclopropane ring” (NISHIZAKI BIOINFORMATION RESEARCH INSTITUTE, priority 2013, dated 2016)", "type_in_all_cases": "biochemical", "key": {"PKCι": {"target": "T1, PKCι (Homo sapiens, UniProt P41743)", "T1 sequence (P41743 1-596)": "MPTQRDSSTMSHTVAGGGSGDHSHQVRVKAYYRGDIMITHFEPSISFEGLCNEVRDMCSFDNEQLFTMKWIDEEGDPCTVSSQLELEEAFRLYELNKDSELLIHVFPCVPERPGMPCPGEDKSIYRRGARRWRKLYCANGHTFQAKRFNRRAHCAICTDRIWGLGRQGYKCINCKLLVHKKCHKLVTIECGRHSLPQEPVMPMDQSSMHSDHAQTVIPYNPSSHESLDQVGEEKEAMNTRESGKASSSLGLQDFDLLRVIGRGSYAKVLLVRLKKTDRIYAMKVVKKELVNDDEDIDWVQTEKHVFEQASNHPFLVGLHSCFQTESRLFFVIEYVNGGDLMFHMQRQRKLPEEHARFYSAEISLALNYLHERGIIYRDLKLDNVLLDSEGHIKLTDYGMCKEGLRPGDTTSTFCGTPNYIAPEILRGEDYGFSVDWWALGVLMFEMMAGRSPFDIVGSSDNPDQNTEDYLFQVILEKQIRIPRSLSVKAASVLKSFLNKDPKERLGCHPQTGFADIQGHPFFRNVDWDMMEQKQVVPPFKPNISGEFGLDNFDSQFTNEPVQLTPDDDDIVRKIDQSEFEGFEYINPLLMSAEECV", "assay": "Cell-free PKC assay", "settings": "100 μM, FIG. 6", "protocol": "(§1) PKC activity in a cell-free system was quantified by the method described in a previous report (Kanno T et al. J Lipid Res 2006; 47: 1146-1156). In short, synthesized PKC substrate peptide (10 μM) was reacted with various PKC isozymes in a medium containing 20 mM Tris-HCl (pH 7.5), 5 mM magnesium acetate, 10 μM ATP, and DCP-LA-phospholipid in the absence of phosphatidylserine and diacylglycerol at 30° C. for 5 min. A Ca^2+-free medium was used for novel PKC such as PKC-δ, -ε and the like, and a 100 μM CaCl2-containing medium was used for other PKC isozymes. They were loaded on reversed-phase HPLC (LC-10ATvp, Shimadzu Co., Kyoto, Japan), and the peaks of substrate peptide and new resultant products were measured at an absorbance of 214 nm. The areas of non-phosphorylated PKC substrate peptide and phosphorylated PKC substrate peptide were measured (total area corresponds to the concentration of PKC substrate peptide used in this Example), and the amount of the phosphorylated substrate peptide was calculated. The amount of the phosphorylated substrate peptide (pmol/1 min) per 1 min was used as an index of the PKC activity."}, "PKC isozymes": {"tested_on": "PKC isozymes", "assay": "Cell-free PKC assay", "settings": "100 μM, FIG. 5", "protocol": "as §1"}, "PKCζ": {"target": "T2, PKCζ (Homo sapiens, UniProt Q05513)", "T2 sequence (Q05513 1-592)": "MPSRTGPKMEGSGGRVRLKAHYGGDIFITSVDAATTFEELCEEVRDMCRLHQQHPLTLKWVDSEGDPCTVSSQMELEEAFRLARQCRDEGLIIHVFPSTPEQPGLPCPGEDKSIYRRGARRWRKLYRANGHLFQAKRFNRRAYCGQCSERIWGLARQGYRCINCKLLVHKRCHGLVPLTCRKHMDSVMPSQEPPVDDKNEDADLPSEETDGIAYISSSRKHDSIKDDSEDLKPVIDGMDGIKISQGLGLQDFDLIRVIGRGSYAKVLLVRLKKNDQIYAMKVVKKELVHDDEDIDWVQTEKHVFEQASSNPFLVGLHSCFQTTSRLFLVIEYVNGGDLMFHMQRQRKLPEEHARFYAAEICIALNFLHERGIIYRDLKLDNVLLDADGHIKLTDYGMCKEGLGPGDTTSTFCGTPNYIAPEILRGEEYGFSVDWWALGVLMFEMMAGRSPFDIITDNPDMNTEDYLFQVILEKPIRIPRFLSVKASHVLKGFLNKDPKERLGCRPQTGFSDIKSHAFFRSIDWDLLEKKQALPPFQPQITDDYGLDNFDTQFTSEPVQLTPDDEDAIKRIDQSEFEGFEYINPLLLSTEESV", "assay": "Cell-free PKC assay", "settings": "100 μM, FIG. 6", "protocol": "as §1"}, "Human PTP1B": {"target": "T3, Human PTP1B (Homo sapiens, UniProt P18031)", "T3 construct": "made in house; host or cells: E. coli BL21(DE3)", "T3 sequence (P18031 1-435)": "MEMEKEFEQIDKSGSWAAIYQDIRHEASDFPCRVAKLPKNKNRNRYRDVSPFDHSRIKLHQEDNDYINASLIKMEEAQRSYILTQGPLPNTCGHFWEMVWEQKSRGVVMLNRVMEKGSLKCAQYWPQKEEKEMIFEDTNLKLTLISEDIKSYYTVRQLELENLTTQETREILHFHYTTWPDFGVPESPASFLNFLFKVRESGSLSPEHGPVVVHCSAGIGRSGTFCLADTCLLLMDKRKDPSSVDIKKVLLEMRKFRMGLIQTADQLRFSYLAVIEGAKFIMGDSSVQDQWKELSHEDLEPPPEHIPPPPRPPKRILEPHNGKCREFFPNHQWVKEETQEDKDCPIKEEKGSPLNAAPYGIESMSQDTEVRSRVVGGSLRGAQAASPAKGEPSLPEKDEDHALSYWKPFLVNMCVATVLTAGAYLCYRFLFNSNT", "assay": "Assay of PTP1B activity under cell-free conditions (p-NPP substrate)", "settings": "FIG. 2", "protocol": "Protein tyrosine phosphatase was measured under cell-free conditions by a method partially modified from the methods described in previous reports (Baba Y, et al. J Am Chem Soc 2003; 125; 9740-9749; Rice R L, et al. Biochemistry 1997; 36: 15965-15974). Human PTP1B was cloned to a pGEX-6P-3 vector having a GST tag at the NH2 terminal, and expressed in competent E. coli BL21(DE3) suitable for transformation and protein expression. GST fusion PTP1B was affinity-purified using glutathione sepharose 4B (GE Healthcare Bio-Science KK, Tokyo, Japan). It was reacted with p-nitrophenylphosphate (p-NPP) (Sigma, St. Louis, Mo., USA) as a substrate and PTP1B activity was measured. The enzyme was pre-incubated in a reaction medium [50 mM HEPES, 1 mM EDTA, 50 mM NaCl, 1 mM dithiothreitol, pH 7.2] at 37° C. for 30 min in the presence or absence of diDCP-LA-PE and with or without addition of Na3VO4 which is a PTP1B inhibitor. Then, p-NPP (10 mM) was added to the reaction medium, and the mixture was incubated for 60 min. The reaction was discontinued by the addition of 0.1N NaOH. Dephosphorylated p-NPP, i.e., p-NP, was quantified at an absorbance of 405 nm by using SpectraMax PLUS384 (Molecular Devices, Sunnyvale, Calif., USA)."}}, "data": [{"molecule": "CCCCCC1CC1CC1CC1CCCCCCCC(=O)OC[C@H](COP(=O)(O)OCCN)OC(=O)CCCCCCCC1CC1CC1CC1CCCCC", "note": "(stereo partly shown) [diDCP-LA-PE, 1,2-o-bis-[8-{2-(2-pentyl-cyclopropylmethyl)-cyclopropyl}-octanoyl]-sn-glycero-3-phosphatidylethanolamine]", "values": [{"measurement": "PKCι activation, specificity", "setting": "PKCι", "result": "specific activating agent of PKCι and PKCζ"}, {"measurement": "PKC activation, all PKC isozymes", "setting": "PKC isozymes", "result": "activates all PKC isozymes"}, {"measurement": "PKCζ activation, specificity", "setting": "PKCζ", "result": "specific activating agent of PKCι and PKCζ"}, {"measurement": "PTP1B inhibition (phosphatase activity, dephosphorylated p-NPP)", "setting": "Human PTP1B", "result": "inhibits PTP1B in a concentration-dependent manner"}]}]}
